We go through 10 compounds from patent publication US20250250299A1, “MACROCYCLIC IMMUNOMODULATORS” (Bristol-Myers Squibb Company, priority 2022, published 2025).

Molecules are shown by their SMILES. Where a SMILES comes first, the peptide text is derived from it. Bridges are numbered along the chain shown (N, C = ends). [ ]: non-standard residue; d: D form. The star is where a group is joined. X1 = O=C(O)CCCCCCCCCCCCCCCCC(=O)N[C@@H](CCC(=O)NCCOCCOCCOCCOCCOCCOCCOCCOCCOCCOCCOCCn1cc(C*)nn1)C(=O)O; Phe(4-COOH) = N[C@@H](Cc1ccc(C(=O)O)cc1)C(=O)O; Bip = N[C@@H](Cc1ccc(-c2ccccc2)cc1)C(=O)O; Phe(3-Me) = Cc1cccc(C[C@H](N)C(=O)O)c1; Cha = N[C@@H](CC1CCCCC1)C(=O)O; Carboxymethyl = O=C(O)C*; Nle = CCCC[C@H](N)C(=O)O; Orn = NCCC[C@H](N)C(=O)O; Dab = NCC[C@H](N)C(=O)O; Nva = CCC[C@H](N)C(=O)O; Abu = CC[C@H](N)C(=O)O; Dap = NC[C@H](N)C(=O)O; AEEA = NCCOCCOCC(=O)O

The target of the first assay is T1, human PD-1 (Jurkat-PD-1 cells; binding of PE-labeled human PD-L1-Ig) (Homo sapiens, UniProt Q15116).
T1 construct: expressed in transfected cells; host or cells: Jurkat (Jurkat-PD-1 / Jurkat-hPD-1)
T1 sequence (Q15116 25-288): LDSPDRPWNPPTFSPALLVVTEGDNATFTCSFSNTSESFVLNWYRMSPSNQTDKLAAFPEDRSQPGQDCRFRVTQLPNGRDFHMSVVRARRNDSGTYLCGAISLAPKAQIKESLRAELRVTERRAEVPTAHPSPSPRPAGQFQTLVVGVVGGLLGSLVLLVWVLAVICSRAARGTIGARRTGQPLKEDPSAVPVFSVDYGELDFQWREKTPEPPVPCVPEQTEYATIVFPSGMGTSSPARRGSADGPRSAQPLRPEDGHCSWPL
Put plainly: Jurkat-PD-1 Cell Binding High-Content Screening Assay.
Settings: not given
As to the method: The ability of the compounds of formula (I) to bind to PD-1 was investigated using a Jurkat-PD-1 Cell Binding High-Content Screening Assay.
Phycoerythrin (PE) was covalently linked to the Ig epitope tag of human PD-L1-Ig and fluorescently-labeled PD-L1-Ig was used for binding studies with a Jurkat cell line over-expressing human PD-1 (Jurkat-PD-1). Briefly, 8×10^3 Jurkat-hPD-1 cells were seeded into 384 well plates in 20 μl of DIVEM supplemented with 10% fetal calf serum. 100 nl of compound was added to cells followed by incubation at 37° C. for 2 h. Then, 5 μl of PE-labeled PD-L1-Ig (20 nM final), diluted in DiVEM supplemented with 10 fetal calf serum. After 1 hour incubation, cells were fixed with […] in dPBS containing 10 µg/mL Hoechst 33342 and then washed 3× in 100 μl dPB S. Data was collected and processed using a Cell Insight NXT High Content Imager and associated software.
One may read the IC50 as the concentration at which inhibition is half-maximal. `CCCC[C@@H]1NC(=O)CSC[C@@H](C(=O)N[C@@H](CCN)C(N)=O)NC(=O)[C@H](CCC(=O)O)NC(=O)[C@H](C(C)C)NC(=O)[C@H](CC2CCCCC2)NC(=O)[C@H](CCN)NC(=O)[C@@H](CC(C)C)NC(=O)[C@H](CCCN)NC(=O)[C@H](Cc2ccc(OCc3cn(CCOCCOCCOCCOCCOCCOCCOCCOCCOCCOCCOCCNC(=O)CC[C@H](NC(=O)CCCCCCCCCCCCCCCCC(=O)O)C(=O)O)nn3)cc2)NC(=O)[C@H](Cc2ccc(-c3ccccc3)cc2)NC(=O)[C@H](Cc2ccc(C(=O)O)cc2)NC(=O)[C@H](Cc2cccc(C)c2)NC(=O)[C@H](CC(=O)O)NC(=O)[C@H](Cc2ccc(C(=O)O)cc2)NC1=O` [Compound 1028] ({CH2CO}-[Nle][Phe(4-COOH)]D[Phe(3-Me)][Phe(4-COOH)][Bip]Y(X1)[Orn][dL][Dab][Cha]VEC[Dab]-NH2; thioether N-14) showed a half-maximal inhibitory concentration (IC50) of 430 nM.

Still in this assay, the particulars now being: Jurkat cell line over-expressing human PD-1; compound 2 h at 37° C., then PE-labeled PD-L1-Ig 20 nM final, 1 hour; read-out: Jurkat hPD1 PDL1 IC50.
On to `CCC[C@@H]1NC(=O)CSC[C@@H](C(=O)N[C@@H](CCN)C(N)=O)NC(=O)[C@H](CCC(=O)O)NC(=O)[C@H](C(C)C)NC(=O)[C@H](CC2CCCCC2)NC(=O)[C@H](CCN)NC(=O)[C@@H](CC(C)C)NC(=O)[C@H](CCCN)NC(=O)[C@H](Cc2ccc(C(=O)O)cc2)NC(=O)[C@H](Cc2ccc(-c3ccccc3)cc2)NC(=O)[C@H](Cc2ccc(OCc3cn(CCOCCOCCOCCOCCOCCOCCOCCOCCOCCOCCOCCNC(=O)CC[C@H](NC(=O)CCCCCCCCCCCCCCCCC(=O)O)C(=O)O)nn3)cc2)NC(=O)[C@H](Cc2cccc(C)c2)NC(=O)[C@H](CC(=O)O)NC(=O)[C@H](Cc2ccc(C(=O)O)cc2)NC1=O` [Compound 1022] ({CH2CO}-[Nva][Phe(4-COOH)]D[Phe(3-Me)]Y(X1)[Bip][Phe(4-COOH)][Orn][dL][Dab][Cha]VEC[Dab]-NH2; thioether N-14), for which the IC50 was determined as 54 nM. With `Cc1cccc(C[C@@H]2NC(=O)[C@H](CC(=O)O)NC(=O)[C@H](Cc3ccc(OCc4cn(CCOCCOCCOCCOCCOCCOCCOCCOCCOCCOCCOCCNC(=O)CC[C@H](NC(=O)CCCCCCCCCCCCCCCCC(=O)O)C(=O)O)nn4)cc3)NC(=O)[C@H](CN)NC(=O)CSC[C@@H](C(=O)N[C@@H](CCN)C(N)=O)NC(=O)[C@H](CCC(=O)O)NC(=O)[C@H](C(C)C)NC(=O)[C@H](CC3CCCCC3)NC(=O)[C@H](CCN)NC(=O)[C@@H](CC(C)C)NC(=O)[C@H](CCCN)NC(=O)[C@H](Cc3ccc(OCC(=O)O)cc3)NC(=O)[C@H](Cc3ccc(-c4ccccc4)cc3)NC(=O)[C@H](Cc3ccc(OCC(=O)O)cc3)NC2=O)c1` [Compound 1008] ({CH2CO}-[Dap]Y(X1)D[Phe(3-Me)]Y(Carboxymethyl)[Bip]Y(Carboxymethyl)[Orn][dL][Dab][Cha]VEC[Dab]-NH2; thioether N-14), the IC50 amounted to 710 nM. Turning to `Cc1cccc(C[C@@H]2NC(=O)[C@H](CC(=O)O)NC(=O)[C@H](Cc3ccc(OCC(=O)O)cc3)NC(=O)[C@H](CN)NC(=O)CSC[C@@H](C(=O)N[C@@H](CCN)C(N)=O)NC(=O)[C@H](Cc3ccc(OCc4cn(CCOCCOCCOCCOCCOCCOCCOCCOCCOCCOCCOCCNC(=O)CC[C@H](NC(=O)CCCCCCCCCCCCCCCCC(=O)O)C(=O)O)nn4)cc3)NC(=O)[C@H](C(C)C)NC(=O)[C@H](CC3CCCCC3)NC(=O)[C@H](CCN)NC(=O)[C@@H](CC(C)C)NC(=O)[C@H](CCCN)NC(=O)[C@H](Cc3ccc(OCC(=O)O)cc3)NC(=O)[C@H](Cc3ccc(-c4ccccc4)cc3)NC(=O)[C@H](Cc3ccc(OCC(=O)O)cc3)NC2=O)c1` [Compound 1013] ({CH2CO}-[Dap]Y(Carboxymethyl)D[Phe(3-Me)]Y(Carboxymethyl)[Bip]Y(Carboxymethyl)[Orn][dL][Dab][Cha]VY(X1)C[Dab]-NH2; thioether N-14), the IC50 was 240 nM. Regarding `Cc1cccc(C[C@@H]2NC(=O)[C@H](CC(=O)O)NC(=O)[C@H](Cc3ccc(OCC(=O)O)cc3)NC(=O)[C@H]([C@@H](C)O)NC(=O)CSC[C@@H](C(=O)N[C@@H](CCN)C(N)=O)NC(=O)[C@H](CCC(=O)O)NC(=O)[C@H](C(C)C)NC(=O)[C@H](CC3CCCCC3)NC(=O)[C@H](CCN)NC(=O)[C@@H](CC(C)C)NC(=O)[C@H](CCCN)NC(=O)[C@H](Cc3ccc(OCC(=O)O)cc3)NC(=O)[C@H](Cc3ccc(-c4ccccc4)cc3)NC(=O)[C@H](Cc3ccc(OCc4cn(CCOCCOCCOCCOCCOCCOCCOCCOCCOCCOCCOCCNC(=O)CC[C@H](NC(=O)CCCCCCCCCCCCCCCCC(=O)O)C(=O)O)nn4)cc3)NC2=O)c1` [Compound 1019] ({CH2CO}-TY(Carboxymethyl)D[Phe(3-Me)]Y(X1)[Bip]Y(Carboxymethyl)[Orn][dL][Dab][Cha]VEC[Dab]-NH2; thioether N-14), the IC50 was determined as 140 nM. Turning to `Cc1cccc(C[C@@H]2NC(=O)[C@H](CC(=O)O)NC(=O)[C@H](Cc3ccc(OCC(=O)O)cc3)NC(=O)[C@H](CN)NC(=O)CSC[C@@H](C(=O)N[C@@H](CCN)C(=O)NCCOCCOCC(N)=O)NC(=O)[C@H](COCc3cn(CCOCCOCCOCCOCCOCCOCCOCCOCCOCCOCCOCCNC(=O)CC[C@H](NC(=O)CCCCCCCCCCCCCCCCC(=O)O)C(=O)O)nn3)NC(=O)[C@H](C(C)C)NC(=O)[C@H](CC3CCCCC3)NC(=O)[C@H](CCN)NC(=O)[C@@H](CC(C)C)NC(=O)[C@H](CCCN)NC(=O)[C@H](Cc3ccc(OCC(=O)O)cc3)NC(=O)[C@H](Cc3ccc(-c4ccccc4)cc3)NC(=O)[C@H](Cc3ccc(OCC(=O)O)cc3)NC2=O)c1` [Compound 1041] ({CH2CO}-[Dap]Y(Carboxymethyl)D[Phe(3-Me)]Y(Carboxymethyl)[Bip]Y(Carboxymethyl)[Orn][dL][Dab][Cha]VS(X1)C[Dab][AEEA]-NH2; thioether N-14), the IC50 turned out to be 140 nM.

With `Cc1cccc(C[C@@H]2NC(=O)[C@H](CC(=O)O)NC(=O)[C@H](Cc3ccc(OCC(=O)O)cc3)NC(=O)[C@H](CN)NC(=O)CSC[C@@H](C(=O)N[C@@H](CCN)C(N)=O)NC(=O)[C@H](CCC(=O)O)NC(=O)[C@H](C(C)C)NC(=O)[C@H](CC3CCCCC3)NC(=O)[C@H](CCN)NC(=O)[C@@H](CC(C)C)NC(=O)[C@H](CCCN)NC(=O)[C@H](Cc3ccc(OCC(=O)O)cc3)NC(=O)[C@H](Cc3ccc(-c4ccccc4)cc3)NC(=O)[C@H](Cc3ccc(OCc4cn(CCOCCOCCOCCOCCOCCOCCOCCOCCOCCOCCOCCNC(=O)CC[C@H](NC(=O)CCCCCCCCCCCCCCCCC(=O)O)C(=O)O)nn4)cc3)NC2=O)c1` [Compound 1004] ({CH2CO}-[Dap]Y(Carboxymethyl)D[Phe(3-Me)]Y(X1)[Bip]Y(Carboxymethyl)[Orn][dL][Dab][Cha]VEC[Dab]-NH2; thioether N-14), the IC50 amounted to 110 nM. For the compound `CC[C@@H]1NC(=O)CSC[C@@H](C(=O)N[C@@H](CCN)C(N)=O)NC(=O)[C@H](CCC(=O)O)NC(=O)[C@H](C(C)C)NC(=O)[C@H](CC2CCCCC2)NC(=O)[C@H](CCN)NC(=O)[C@@H](CC(C)C)NC(=O)[C@H](CCCN)NC(=O)[C@H](Cc2ccc(OCC(=O)O)cc2)NC(=O)[C@H](Cc2ccc(-c3ccccc3)cc2)NC(=O)[C@H](Cc2ccc(OCc3cn(CCOCCOCCOCCOCCOCCOCCOCCOCCOCCOCCOCCNC(=O)CC[C@H](NC(=O)CCCCCCCCCCCCCCCCC(=O)O)C(=O)O)nn3)cc2)NC(=O)[C@H](Cc2cccc(C)c2)NC(=O)[C@H](CC(=O)O)NC(=O)[C@H](Cc2ccc(OCC(=O)O)cc2)NC1=O` [Compound 1017] ({CH2CO}-[Abu]Y(Carboxymethyl)D[Phe(3-Me)]Y(X1)[Bip]Y(Carboxymethyl)[Orn][dL][Dab][Cha]VEC[Dab]-NH2; thioether N-14), the IC50 worked out at 90 nM.

As to `Cc1cccc(C[C@@H]2NC(=O)[C@H](CC(=O)O)NC(=O)[C@H](Cc3ccc(OCc4cn(CCOCCOCCOCCOCCOCCOCCOCCOCCOCCOCCOCCNC(=O)CC[C@H](NC(=O)CCCCCCCCCCCCCCCCC(=O)O)C(=O)O)nn4)cc3)NC(=O)[C@H](CCN)NC(=O)CSC[C@@H](C(=O)N[C@@H](CCN)C(N)=O)NC(=O)[C@H](CCC(=O)O)NC(=O)[C@H](C(C)C)NC(=O)[C@H](CC3CCCCC3)NC(=O)[C@H](CCN)NC(=O)[C@@H](CC(C)C)NC(=O)[C@H](CCCN)NC(=O)[C@H](Cc3ccc(OCC(=O)O)cc3)NC(=O)[C@H](Cc3ccc(-c4ccccc4)cc3)NC(=O)[C@H](Cc3ccc(OCC(=O)O)cc3)NC2=O)c1` [Compound 1007] ({CH2CO}-[Dab]Y(X1)D[Phe(3-Me)]Y(Carboxymethyl)[Bip]Y(Carboxymethyl)[Orn][dL][Dab][Cha]VEC[Dab]-NH2; thioether N-14), the IC50 came to 510 nM. Take `Cc1cccc(C[C@@H]2NC(=O)[C@H](CC(=O)O)NC(=O)[C@H](Cc3ccc(OCC(=O)O)cc3)NC(=O)[C@H](CCCNC(=N)N)NC(=O)CSC[C@@H](C(=O)N[C@@H](CCN)C(N)=O)NC(=O)[C@H](CCC(=O)O)NC(=O)[C@H](C(C)C)NC(=O)[C@H](CC3CCCCC3)NC(=O)[C@H](CCN)NC(=O)[C@@H](CC(C)C)NC(=O)[C@H](CCCN)NC(=O)[C@H](Cc3ccc(OCC(=O)O)cc3)NC(=O)[C@H](Cc3ccc(-c4ccccc4)cc3)NC(=O)[C@H](Cc3ccc(OCc4cn(CCOCCOCCOCCOCCOCCOCCOCCOCCOCCOCCOCCNC(=O)CC[C@H](NC(=O)CCCCCCCCCCCCCCCCC(=O)O)C(=O)O)nn4)cc3)NC2=O)c1` [Compound 1005] ({CH2CO}-RY(Carboxymethyl)D[Phe(3-Me)]Y(X1)[Bip]Y(Carboxymethyl)[Orn][dL][Dab][Cha]VEC[Dab]-NH2; thioether N-14): the IC50 came to 39 nM.
